In brackets after ≈: the same amount, converted by molar mass. Where two headings read alike, the source gives them in different places.
Columns and labels:
Vibrio harvevi = settings: cited from earlier work
hemozoin = settings: trophozoite stage; cited from earlier work
[1] = test system: Plasmodium falciparum 3D7 strain; assay: In vitro susceptibility assay of P. falciparum, SYBR Green I; assay type: cell-based; settings: for antimalarial activity (in words): P. falciparum 3D7; for IC50: Plasmodium falciparum
Method: The principle of the in vitro susceptibility test to malaria is to assess the degree of development of parasites P. falciparum in the presence of different concentrations of the compounds.
In the present disclosure, the antimalarial activity was also evaluated. Each compound was lyophilized and solubilized in DMSO (Sigma-Aldrich) to obtain a final concentration of 5 mM. Some intermediate dilutions were made to achieve the final concentration of 10 μM in the first well of the plate.
In an embodiment, the culture of P. falciparum was carried out as follows. […] Parasites were cultivated at 5% hematocrit, 37° C. and atmosphere with 5% of CO2, human serum was replaced with 0.5% AlbuMAXII (Invitrogen™) in the culture medium. Synchronized cultures were obtained by treatments with a 5% (m/v) solution of D-sorbitol (Sigma-Aldrich).
In the present disclosure, the in vitro susceptibility assay of P. falciparum using SYBR Green I was carried out as follows. […] Briefly, early ring stage parasites (>80% of rings, 3% haematocrit and 1% parasitaemia) were tested in duplicate in a 96-well plate and incubated with the compounds for 48 h (37° C., 5% CO2), parasite growth was assessed with SYBR Green I (Thermo Fisher Scientific). Each compound was tested in concentrations ranging from 10 to 0.001 μM. Fluorescence intensity was measured with a microplate reader with excitation and emission wavelengths of 485 and 535 nm, respectively, and analysed by nonlinear regression using GraphPad Prism 5 demo version to determine

V79 cells = settings: for DL50: 24 h; for SI (Selectivity Index): calculated by LD50/IC50 (V79 / P. falciparum 3D7)
Method: In the present disclosure, the cytotoxicity in vitro against mammalian cell was carried out as follows. Cytotoxicity was assessed on the mammalian cell line V79 (Chinese hamster lung), using an MTT based assay, as previously described [38B]. Tests were conducted in triplicate for each compound, at a range of concentrations (800 μM to 0.0512 μM), and with culture media containing 0.5% DMSO (no drug control); incubation time 24 h. Absorbance was read at 570 nm on a multi-mode microplate reader to produce a log dose-dependence curve. The LD50 value for each compound was estimated by non-linear interpolation of the dose-dependence curve (GraphPad Software).

[2] = test system: healthy/non-parasitized erythrocytes; assay: Hemotoxicity in vitro (hemolysis assay); assay type: cell-based, human; settings: at ≤10 μM
Method: In an embodiment, the evaluation of hemotoxicity in vitro was performed as follows. The in vitro hemolysis assay evaluates the release of hemoglobin in the medium (as an indicator of lysis of erythrocytes) after exposure to the test compounds.
In the present disclosure, the evaluation of hemotoxicity in vitro was performed as follows. In a 96-flat bottom plate 3% HTC, 20 μL of 20% Triton X-100, and 20 μL of PBS or RPMIc in 2% DMSO was added. Compounds were tested in a 1:4 serial dilution in concentrations ranging from 10 μM to 0.04 μM. After the incubation of 60 minutes, the plate was centrifuged at 2000 rpm for 5 minutes. 100 mL of Supernatant was transferred to a flat bottom plate. The absorbance reading was made at 450 nm in a Mode (Triad, Dynex Technologies). Two independent tests were carried out in triplicate. The results are presented in the form of a percentage of hemolysis-% hemolysis, obtained by the following formula; % Hemolysis=ABS (sample)/abs (C+)×100. Whereas C+ is a Triton x-100 to 20% solution RPMIc.

hemozoin (β-hematin) = assay: Inhibition of polymerization of hemozoin (β-hematin) in vitro; settings: 12 and 16 at 48.0, 24.0, 12.0 μM; 31 at 96.0, 48.0, 24.0 μM; 24 h
[3] = test system: Staphylococcus aureus ATCC 29213; assay: MIC/MBC broth dilution (CLSI), S. aureus reference strain; assay type: cell-based; settings: S. aureus ATCC 29213
Description: (§1) In the present disclosure, two Gram-positive—Staphylococcus aureus ATCC 29213 and Enterococcus faecalis ATCC […] and two Gram-negative—Escherichia coli ATCC 25922 and Pseudomonas aeruginosa ATCC 27853—reference bacterial strains were used. When it was possible to determine a minimal inhibitory concentration (MIC) value for these strains, clinically relevant strains were also used. These included methicillin-resistant S. uareus (MRSA) 66/1, isolated from public buses, as well as a isolate sensitive to the most commonly used antibiotic families (S. aureus 40/61/24) and two vancomycin-resistant Enterococcus (VRE) strains isolated from river water, E. faecalis B3/101 and E. faecalis A5/102, which is sensitive to ampicillin. Frozen stocks of all strains were grown on Mueller-Hinton agar (MH-BioKar Diagnostics, Allone, France) at 37° C. for 24 h. All bacterial strains were sub-cultured on MH agar and incubated overnight at 37° C. before each assay, in order to obtain fresh cultures.
(§2) An initial screening of the antibacterial activity of the compounds was performed by the Kirby-Bauer disk diffusion method, as recommended by the Clinical and Laboratory Standards institute (CLSI). Briefly, sterile 6 mm blank paper disks (Oxoid, Basingstoke, England) impregnated with 15 μg of each compound were placed on inoculated MH agar plates. A blank disk with DMSO was used as a negative control. MH inoculated plates were incubated for 18-20 hours at 37° C. At the end of the incubation, the inhibition halos where measured. The minimal inhibitory concentration (MIC) was used to determine the antibacterial activity of each compound, in accordance with the recommendations of the CLSI. Two-fold serial dilutions of the compounds were prepared in Mueller-Hinton Broth 2 (MHB2-Sigma-Aldrich, St. Louis, Mo., USA) within the concentration range of 0.062-64 μg/mL. Cefotaxime (CTX) ranging between 0.031-16 μg/mL was used as a control. Sterility and growth controls were included in each assay. Purity check and colony counts of the inoculum suspensions were also performed in order to ensure that the final inoculum density closely approximates the intended number ([…]). The MIC was determined as the lowest concentration at which no visible growth was observed. The minimal bactericidal concentration (MBC) was assessed by spreading 10 μL of culture collected from wells showing no visible growth on MH agar plates. The MBC was determined as the lowest concentration at which no colonies grew after 16-18 hours incubation at 37° C. These assays were performed in duplicate.

S. aureus 40/61/24 = assay: MIC/MBC broth dilution (CLSI), sensitive clinical isolate; assay type: cell-based; settings: Staphylococcus aureus
Description: as §1, §2

S. aureus 66/1 (MRSA) = assay: MIC/MBC broth dilution (CLSI), MRSA; assay type: cell-based; settings: Staphylococcus aureus
Description: as §1, §2

E. faecalis ATCC 29212 = assay: MIC/MBC broth dilution (CLSI), E. faecalis reference strain; assay type: cell-based, Enterococcus faecalis; settings: Enterococcus faecalis
Description: as §1, §2

Staphylococcus aureus = settings: cited from earlier work
Enterococcus faecalis = settings: cited from earlier work
P. falciparum 3D7 strain = settings: cited from earlier work
[4] = P. falciparum (3D7), 48 h, read-out: IC50

Question: With glyantypine [glyantypine (1)] as the compound, how does the MIC (Vibrio harvevi) read?
Answer: 32 µg/mL

Question: Which “inhibition of the formation of hemozoin (in words)” value (hemozoin) does the source give for `O=C(C[C@H]1NCCC[C@@H]1O)Cn1cnc2ccccc2c1=O` [Febrifugine (9, FF), febrifugine] here?
Answer: significantly inhibits

Question: For `CC(C)C[C@@H]1NC(=O)[C@@H](Cc2c[nH]c3ccccc23)n2c1nc1ccccc1c2=O` [Compound 16], which “antimalarial activity (in words)” value [1] is on record?
Answer: highest antimalarial activity

Question: And the IC50 [1, 4]?
Answer: 50 ± 20 nM

Question: What about the DL50 (V79 cells; Chinese hamster) of the same compound?
Answer: 1.78 ± 0.47 µM

Question: What about the “SI (Selectivity Index)” value (V79 cells) of the same compound?
Answer: 34

Question: And the “hemolytic activity (in words)” value [2]?
Answer: no hemolytic activity

Question: And the “inhibition of the polymerization of β-hematin in vitro (in words)” value (hemozoin (β-hematin))?
Answer: did not show to inhibit

Question: Which results are given for `CC(C)[C@@H]1NC(=O)[C@@H](Cc2c[nH]c3ccccc23)n2c1nc1ccccc1c2=O` [Compound 12, fiscalin B]?
Answer: antimalarial activity (in words) [1]: highest antimalarial activity; IC50 [1, 4]: 100 ± 20 nM; DL50 (V79 cells; Chinese hamster): 1.91 ± 0.44 µM; SI (Selectivity Index) (V79 cells): 19; hemolytic activity (in words) [2]: no hemolytic activity; inhibition of the polymerization of β-hematin in vitro (in words) (hemozoin (β-hematin)): did not show to inhibit

Question: Which “antibacterial (inhibitory) effect (in words)” value [3] does the source give for `CC(C)C[C@@H]1NC(=O)[C@@H](Cc2c[nH]c3ccccc23)n2c1nc1c(Cl)cc(Cl)cc1c2=O` [Compound 31, (1S, 4R)-4-((1H-indol-3-yl)methyl)-8,10-dichloro-1-isobutyl-1,2-dihydro-6H-pyrazino[2,1-b]quinazoline-3,6(4H)-dione] here?
Answer: inhibitory effect

Question: What about the MBC ([3]; Staphylococcus aureus, ATCC29213) of the same compound?
Answer: > 64 µg/mL

Question: What about the MIC ([3]; Staphylococcus aureus, ATCC29213, read-out: MIC) of the same compound?
Answer: 4 µg/mL (≈ 8.52 µM)

Question: And the MIC (S. aureus 40/61/24; 40/61/24)?
Answer: 8 µg/mL (≈ 17 µM)

Question: What about the MBC (S. aureus 40/61/24; S. aureus 40/61/24) of the same compound?
Answer: > 64 µg/mL

Question: And the MBC (S. aureus 66/1 (MRSA))?
Answer: > 64 µg/mL

Question: And the MIC (S. aureus 66/1 (MRSA))?
Answer: 8 µg/mL (≈ 17 µM)

Question: And the MBC (E. faecalis ATCC 29212; ATCC29212)?
Answer: > 64 µg/mL

Question: What about the MIC (E. faecalis ATCC 29212; ATCC29212, read-out: MIC) of the same compound?
Answer: > 64 µg/mL

Question: What about the “antimalarial activity (in words)” value [1] of the same compound?
Answer: highest antimalarial activity

Question: What about the IC50 ([1]; 3D7, 48 h) of the same compound?
Answer: 200 nM

Question: And the DL50 (V79 cells; Mammalian cells (V79), MTT)?
Answer: 14.00 ± 1.41 µM

Question: What about the “hemolytic activity (in words)” value [2] of the same compound?
Answer: no hemolytic activity

Question: What about the “inhibition of the polymerization of β-hematin in vitro (in words)” value (hemozoin (β-hematin)) of the same compound?
Answer: did not show to inhibit

Question: What does the source list for `CC(C)[C@@H]1NC(=O)[C@@H](C[C@]2(O)c3ccccc3N3C(=O)[C@@H](C)N[C@H]32)n2c1nc1ccccc1c2=O` [neofiscalin A (2), neofiscalin A]?
Answer: MIC (Staphylococcus aureus): 8 µg/mL (≈ 16.9 µM); MIC (Enterococcus faecalis): 8 µg/mL (≈ 16.9 µM)

Question: With `Clc1ccc2nccc(N3CCC(CN4CCC(c5c[nH]c6ccccc56)CC4)CC3)c2c1` [TCMDC-134281 (8), TCMDC-134281] as the compound, how does the EC50 (P. falciparum 3D7 strain) read?
Answer: 34 nM

Source: patent US20220274987A1, “PYRAZINO [1,2-B]QUINAZOLINE-3,6-DIONES DERIVATIVES, THEIR PRODUCTION AND USES THEREOF” (CIIMAR -CENTRO INTERDISCIPLINAR DE INVESTIGAÇÃO MARINHA E …, priority 2019, published 2022)
